Assay results reported in patent publication US20140024653A1, “COMPOSITIONS AND METHODS FOR TREATING CANCER USING PI3K INHIBITOR AND MEK INHIBITOR” (priority 2011, published 2014).
“Also recorded” adds a separate entry of the source. Like-named read-outs stand apart in the source and are kept apart here.

What was measured:
[1] = tested on: panel of 81 cancer cell lines; experiment: SRB cell growth assay, 72 h, cell line panel; format: cell-based, human
[2] = tested on: A673; experiment: SRB cell growth assay, 72 h; format: cell-based, human; conditions: single agent; for activity (cell growth inhibition): up to 50 μM
[3] = tested on: DLD1; experiment: SRB cell growth assay, 72 h; format: cell-based, human; conditions: single agent
[4] = tested on: EJ28; experiment: SRB cell growth assay, 72 h; format: cell-based, human; conditions: single agent
[5] = tested on: A549; experiment: SRB cell growth assay, 72 h; format: cell-based, human; conditions: for GI50: Homo sapiens
[6] = tested on: MCF7; experiment: SRB cell growth assay, 72 h; format: cell-based, human; conditions: for GI50: Homo sapiens
[7] = tested on: SKBR3; experiment: SRB cell growth assay, 72 h; format: cell-based, human
[8] = tested on: MDAMB468; experiment: SRB cell growth assay, 72 h; format: cell-based, human
Protocol: Cell growth and treatment were performed in 96-well microtitre plates CELLSTAR® (Greiner Bio-One, Germany). Cells harvested from exponential phase cultures by trypsinization were plated in 150 μl of media at optimal seeding densities. The optimal seeding densities for each cell line were determined to ensure exponential growth for the duration of the experiment. All cells growing without anticancer agents were sub-confluent by the end of the treatment as determined by visual inspection.
150 μl of cells, after a 24-hour pre-growth period, were treated by mixing with 50 μl of the compound containing media (resulting in a final DMSO concentration of 0.1%). The cells were allowed to grow at 37° C. for 72 hours. In addition, all experiments contained a few plates with cells that were processed for measurement immediately after the 24 hours recovery period. These plates contained information about the cell number that existed before treatment, at time zero, and served to calculate the cytotoxicity.
After treatment, cells were precipitated by addition of 10% TCA. Prior to fixation, the media was aspirated as described. After an hour of incubation at 4° C., the plates were washed two times with 400 μl of deionized water. Cells were then stained with 100 μl of a 0.08% wt/v SRB. The plates were allowed to sit for at least 30 min. and washed six times with 1% acetic acid to remove unbound stain. The plates were left to dry at room temperature and bound SRB was solubilized with 100 μl of 10 mM Tris base. Measurement of optical density was performed at 560 nm on a Victor 2 plate reader (Perkin Elmer, Germany). The SRB values for A375 and H460 cell lines were near to saturation (2.5 OD units) due to the high protein content of these cells, but not cell confluence. The measurements for these cells were performed at 520 nm instead of 560 nm.
Using these measurements, cellular responses can be calculated for incomplete inhibition of cell growth (GI), complete inhibition of cell growth (T GI) and net loss of cells (LC) due to compound activity. […] This is the drug concentration causing a 50% reduction compared to the net protein increase in control cells during the drug incubation period. In other words, GI50 is IC50 corrected for time zero. Similar to IC90, calculated GI90 values are also reported for all compounds tested. TGI was calculated from Ti=Tz. […] It was calculated as 100×[(Ti−Tz)/Tz]=−50. However, due to 72 hours treatment, low cell seeding density was required and LC50 could rarely be achieved.

[9] = tested on: human pancreatic MiaPaCa-2; experiment: antitumor activity against subcutaneous MiaPaCa-2 xenografts; format: in vivo, nude mice; conditions: 21 days
Protocol: The human pancreatic cancer cell line MiaPaCa-2 (American Type Culture Collection, Manassas Va.), was cultured in MEM medium containing 10% fetal bovine serum, 1% essential amino acid, 1% sodium pyruvate (Life Technologies, Carlsbad, Calif.). […] Cells were re-suspended in PBS (Life Technologies, Carlsbad, Calif.) and then mixed 1:1 with Matrigel (BD Biosciences, San Jose, Calif.). Cells were stored at 4° C. until implantation. MiaPaCa-2 cells (10×10^6 in a 200 μl PBS:Matrigel (1:1) suspension) were subcutaneously injected into the right flank area of female nude (Crl:NU-Foxn1nu) mice (6-8 weeks old, Charles River Laboratories, Wilmington, Mass.). All mice in this study were used according to the guidelines approved by the EMD-Serono Institutional Care and Animal Use Committee (IACUC), #07-003. Developing tumors located in the right flank area of female nude mice were measured over time with digital calipers. […] The remaining tumor-bearing mice were randomized into seven experimental groups (n=9), so that each group had the same mean tumor volume. […] The treatments began on the seventh day following implantation of the Miapaca-2 cells, which was designated as Day 0 for data evaluation purposes. […] Body weights and tumor volumes were assessed twice per week post treatment initiation. […] Efficacy was determined by analyzing tumor volumes and the percent ΔT/ΔC (% ΔT/ΔC). Tumor volume was determined by using the tumor length (1) and width (w) measurements and calculating the volume with the equation 1*w^2/2. The length was measured along the longest axis of the tumor and width was measured perpendicular to that length. The mean percent of actual tumor growth inhibited by the treatments was calculated as follows: [% ΔT/ΔC=(([…]))×100%], where TV=tumor volume, f=final, i=initial and Ctrl=control group. Tolerability was assessed by regarding percent body weight difference during the treatment period. Percent body weight difference was calculated as follows: [% Body weight difference=(BWc-BWi)/BWi×100%], where BW=body weight, c=current, i=initial.

[10] = tested on: human primary colon tumors CR-LRB-009C; experiment: antitumor activity against subcutaneous CR-LRB-009C xenografts; format: in vivo; conditions: for tolerability: as single agents or used in combination
Protocol: The human primary colon carcinoma CR-LRB-009C tumor model was established by implanting (SC) small tumor fragments and was maintained in SCID female mice using serial passages.
(§1) Treatments were administered on measurable tumors. […] Mice were checked daily, and adverse clinical reactions noted.
(§2) Animal body weights included the tumor weight.
(§3) The primary efficacy end points are ΔT/ΔC, percent median regression, partial and complete regressions (PR and CR). Statistical analyses were performed on SAS system release 8.2 for SUN4 via Everstat V5 software and SAS 9.2 software. A probability less than 5% (p<0.05) was considered as significant.

[11] = tested on: human primary colon tumors CR-LRB-013P; experiment: antitumor activity against subcutaneous CR-LRB-013P xenografts; format: in vivo; conditions: for tolerability: as single agents or used in combination
Protocol: The human primary colon carcinoma CR-LRB-013P tumor model was established by implanting (SC) small tumor fragments and was maintained in SCID female mice using serial passages.
as §1, §2, §3

[12] = (1) 20 mg/kg PO daily days 11-21
[13] = (1) 20 mg/kg PO daily days 33-50
[14] = (2b) 20 mg/kg PO daily days 11-21
[15] = (2b) 20 mg/kg PO daily days 33-50

O=C(NC[C@H](O)CO)c1ccncc1Nc1ccc(I)cc1F [Compound (1), N—((S)-2,3-dihydroxypropyl)-3-(2-fluoro-4-iodo-phenylamino)isonicotinamide]
cell lines sensitive below 100 nM ([1]; 82 cell lines): 27 of 82 | IC50 ([1]; Homo sapiens, median of cell lines tested, read-out: median sensitivity): 490 nM | IC50 ([1]; Homo sapiens, sensitive cell lines of the panel, read-out: Efficacy in sensitive cell lines): 4 to 5 nM | difference between the most and least sensitive cell lines ([1]; panel): 10.000 fold | z-score MSC6369 [2]: 3.00 | activity (cell growth inhibition) [2]: minimal activity; also recorded: non-sensitive | z-score MSC6369 [3]: 0.19 | z-score MSC6369 [4]: −0.68 | GI50 [5]: 300 nM | z-score MSC6369 ([5]; single agent): −0.11 | GI50 [6]: 150 nM | z-score MSC6369 ([6]; single agent): −0.33 | sensitivity ([7]; single agent): non-sensitive | z-score MSC6369 ([7]; single agent): 0.69 | activity (cell growth inhibition) ([8]; single agent, up to 50 μM): minimal activity | % ΔT/ΔC ([9]; AS703026 5 mg/kg po QD, 5 mg/kg): 56.2% | Average body weight change in % per mouse at nadir [10, 12]: −7.7 (20) % | Drug death [10, 12]: 0/7 | Regressions Complete [10, 12]: 0/7 | Regressions Partial [10, 12]: 0/7 | Median ΔT/ΔC in % day 21 ([10]; (1) 20 mg/kg PO daily days 11-21, 20 mg/kg): 53% | tolerability [10]: tolerated, inducing some BWL but not reaching toxicity | Average body weight change in % per mouse at nadir [11, 13]: −4.5 (50) % | Drug death [11, 13]: 0/7 | Median ΔT/ΔC in % day 50 [11, 13]: 30% | Regressions Complete [11, 13]: 0/7 | Regressions Partial [11, 13]: 0/7 | tolerability [11]: tolerated, inducing some BWL but not reaching toxicity

CCn1c(=O)c(-c2ccn[nH]2)cc2c(C)nc(N)nc21 [Compound (2b), 2-amino-8-ethyl-4-methyl-6-(1H-pyrazol-5-yl)pyrido[2,3-d]pyrimidin-7(8H)-one]
GI50 ([1]; Homo sapiens, all 81 cell lines, log 10-transformed data): 1300 to 1400 nM | differences in activity between sensitive and insensitive cell lines ([1]; panel): 10-20 fold | z-score MSC0765 [2]: 0.96 | activity (cell growth inhibition) [2]: non-sensitive | z-score MSC0765 [3]: 0.81 | z-score MSC0765 [4]: 1.25 | GI50 [5]: 1150 nM | z-score MSC0765 ([5]; single agent): −0.20 | GI50 [6]: 1600 nM | z-score MSC0765 ([6]; single agent): 0.30 | GI50 ([7]; Homo sapiens, SK-BR-3, most sensitive, z-score <−1.5): < 500 nM | sensitivity ([7]; single agent): very sensitive | z-score MSC0765 ([7]; single agent): −2.18 | GI50 ([8]; Homo sapiens, MDA-MB-468, most sensitive, z-score <−1.5): < 500 nM | % ΔT/ΔC ([9]; XL-765 30 mg/kg po QD, 30 mg/kg): 77.0% | Average body weight change in % per mouse at nadir [10, 14]: −7.4 (19) % | Drug death [10, 14]: 0/7 | Median ΔT/ΔC in % day 21 [10, 14]: 51% | Regressions Complete [10, 14]: 0/7 | Regressions Partial [10, 14]: 0/7 | tolerability [10]: tolerated, inducing some BWL but not reaching toxicity | Average body weight change in % per mouse at nadir [11, 15]: −5.2 (50) % | Drug death [11, 15]: 0/7 | Regressions Complete [11, 15]: 0/7 | Regressions Partial [11, 15]: 0/7 | tolerability [11]: tolerated, inducing some BWL but not reaching toxicity
